These results are taken from patent US11524968B2, “Heterocyclic compound as a protein kinase inhibitor” (HK inno.N Corporation, priority 2017, dated 2022).

Some results are limits rather than exact numbers.

For the test, the target named is JAK1 (Homo sapiens (Human), UniProt P23458). The experiment in a line: Analysis of JAK1 activity inhibition ability (ADP-Glo Kinase Assay). It is filed as biochemical. To be noted: JAK1 enzyme, ADP-Glo luminescence, ATP 250 uM, IRS-itide substrate, 30° C. 40 minutes; read-out: IC50. In short, it runs like this: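 ADP-Glo luminescence read-out of ADP production, with IC50 taken as the concentration halving JAK1 activity relative to control. Enzyme was incubated 40 min at 30 °C with compound, IRS-itide (40 ng/mL) and ATP (250 uM), concentrations as prepared in pH 7.5 Tris-HCl/MgCl2/BSA/DTT buffer.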
JAK1, sequence (P23458 whole entry): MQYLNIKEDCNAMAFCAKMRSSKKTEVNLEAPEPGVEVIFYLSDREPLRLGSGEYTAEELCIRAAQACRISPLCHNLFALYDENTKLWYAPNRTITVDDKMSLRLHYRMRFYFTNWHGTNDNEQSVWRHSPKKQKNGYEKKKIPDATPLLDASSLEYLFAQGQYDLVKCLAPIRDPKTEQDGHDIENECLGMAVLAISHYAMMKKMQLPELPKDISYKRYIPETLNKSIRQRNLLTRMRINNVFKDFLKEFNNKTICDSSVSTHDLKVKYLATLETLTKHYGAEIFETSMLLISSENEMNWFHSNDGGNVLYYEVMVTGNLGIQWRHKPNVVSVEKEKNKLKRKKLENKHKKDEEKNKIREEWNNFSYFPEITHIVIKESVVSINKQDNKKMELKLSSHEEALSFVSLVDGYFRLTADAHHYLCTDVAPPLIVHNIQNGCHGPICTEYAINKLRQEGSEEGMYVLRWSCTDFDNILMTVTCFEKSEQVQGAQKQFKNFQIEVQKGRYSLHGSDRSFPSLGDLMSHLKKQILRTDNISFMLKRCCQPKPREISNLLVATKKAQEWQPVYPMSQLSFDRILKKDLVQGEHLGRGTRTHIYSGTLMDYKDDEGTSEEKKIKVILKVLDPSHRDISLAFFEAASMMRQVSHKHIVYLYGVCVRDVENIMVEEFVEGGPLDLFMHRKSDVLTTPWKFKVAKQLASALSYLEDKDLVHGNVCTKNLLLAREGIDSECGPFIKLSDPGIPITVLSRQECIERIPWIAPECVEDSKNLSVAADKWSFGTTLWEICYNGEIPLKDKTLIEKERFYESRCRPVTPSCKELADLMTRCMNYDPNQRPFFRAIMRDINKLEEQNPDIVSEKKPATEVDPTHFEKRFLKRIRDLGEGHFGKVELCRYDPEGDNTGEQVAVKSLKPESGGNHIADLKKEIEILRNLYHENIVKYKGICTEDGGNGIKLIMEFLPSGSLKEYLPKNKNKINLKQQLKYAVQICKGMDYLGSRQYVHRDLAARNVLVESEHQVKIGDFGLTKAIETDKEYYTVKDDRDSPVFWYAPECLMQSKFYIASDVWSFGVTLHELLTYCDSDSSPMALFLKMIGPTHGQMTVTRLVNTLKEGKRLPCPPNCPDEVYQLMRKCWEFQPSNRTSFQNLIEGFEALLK
(In ADP-Glo the light output rises with the ADP produced.)
As a reminder, the IC50 is the concentration that gives 50% inhibition. Consider `CCS(=O)(=O)Nc1c(F)cc(-c2cc(NC(=O)C3CC3)nc3[nH]ccc23)cc1F` [Example 81, N-(4-(4-(ethylsulfonamido)-3,5-difluorophenyl)-1H-pyrrolo[2,3-b]pyridin-6-yl)cyclopropanecarboxamide], for which the concentration for half-maximal inhibition (IC50) lay in the range of 20 to 200 nM.
On to `O=C(Nc1cc(-c2ccc(NS(=O)(=O)c3ccc4c(c3)OCCO4)cc2)c2cc[nH]c2n1)C1CC1` [Example 38, N-(4-(4-((2,3-dihydrobenzo[b][1,4]dioxine)-6-sulfonamido)phenyl)-1H-pyrrolo[2,3-b]pyridin-6-yl)cyclopropanecarboxamide], for which the 50% inhibitory concentration (IC50) was in the range of 20 to 200 nM.
With `N#CCC(=O)N1C[C@H]2C[C@@H]1CN2c1cc(NC(=O)C2CC2)nc2[nH]ccc12` [Example 681, N-(4-((1R,4R)-5-(2-cyanoacetyl)-2,5-diazabicyclo[2.2.1]heptan-2-yl)-1H-pyrrolo[2,3-b]pyridin-6-yl)cyclopropanecarboxamide] the figure was more than 200 nM; with `CC1CN(C(=O)c2ccc([N+](=O)[O-])cc2)CC=C1c1cc(NC(=O)C2CC2)nc2[nH]ccc12` (stereo not shown) [Example 331, N-(4-(3-methyl-1-(4-nitrobenzoyl)-1,2,3,6-tetrahydropyridin-4-yl)-1H-pyrrolo[2,3-b]pyridin-6-yl)cyclopropanecarboxamide], 20 to 200 nM; with `O=C(Nc1cc(C2=CCN(C(=O)N3CCOCC3)CC2)c2cc[nH]c2n1)C1CC1` [Example 446, N-(4-(1-(morpholine-4-carbonyl)-1,2,3,6-tetrahydropyridin-4-yl)-1H-pyrrolo[2,3-b]pyridin-6-yl)cyclopropanecarboxamide], more than 200 nM.
On to `CN1CCC(C(=O)N2CC=C(c3cc(NC(=O)C4CC4)nc4[nH]ccc34)CC2)C1` (stereo not shown) [Example 280, N-(4-(1-(1-methylpyrrolidine-3-carbonyl)-1,2,3,6-tetrahydropyridin-4-yl)-1H-pyrrolo[2,3-b]pyridin-6-yl)cyclopropanecarboxamide], for which the half-maximal inhibitory concentration (IC50) is more than 200 nM.
With `CCCS(=O)(=O)Nc1ccc(-c2cc(NC(=O)C3CC3)nc3[nH]ccc23)c(C#N)c1` [Example 145, N-(4-(2-cyano-4-(propylsulfonamido)phenyl)-1H-pyrrolo[2,3-b]pyridin-6-yl)cyclopropanecarboxamide] the figure was 20 to 200 nM; with `N#CCC(=O)N1C2CC1CN(c1cc(NC(=O)C3CC3)nc3[nH]ccc13)C2` [Example 685, N-(4-(6-(2-cyanoacetyl)-3,6-diazabicyclo[3.1.1]heptan-3-yl)-1H-pyrrolo[2,3-b]pyridin-6-yl)cyclopropanecarboxamide], more than 200 nM; with `O=C(Nc1cc(-c2ccc(NS(=O)(=O)C3CC3)c(-c3ccccc3)c2)c2cc[nH]c2n1)C1CC1` [Example 130, N-(4-(6-(cyclopropanesulfonamido)-[1,1′-biphenyl]-3-yl)-1H-pyrrolo[2,3-b]pyridin-6-yl)cyclopropanecarboxamide], more than 200 nM.
With `Cc1cc(NS(=O)(=O)NCC(F)(F)F)ccc1-c1cc(NC(=O)C2CC2)nc2[nH]ccc12` [Example 227, N-(4-(2-methyl-4-((N-(2,2,2-trifluoroethyl)sulfamoyl)amino)phenyl)-1H-pyrrolo[2,3-b]pyridin-6-yl)cyclopropanecarboxamide] the figure was 20 to 200 nM; with `CCCCNC(=O)N1CC=C(c2cc(NC(=O)C3CC3)nc3[nH]ccc23)CC1` [Example 444, N-butyl-4-(6-(cyclopropanecarboxamido)-1H-pyrrolo[2,3-b]pyridin-4-yl)-3,6-dihydropyridine-1 (2H)-carboxamide], 20 to 200 nM.
For `O=C(Nc1nc(-c2ccc(NS(=O)(=O)C3CCS(=O)(=O)C3)cc2)c2cc[nH]c2n1)C1CC1` (stereo not shown) [Example 196, N-(4-(4-((1,1-dioxidotetrahydrothiophene)-3-sulfonamido)phenyl)-7H-pyrrolo[2,3-d]pyrimidin-2-yl)cyclopropanecarboxamide], the IC50 fell in the range of 20 to 200 nM.
As to `Cn1cc(S(=O)(=O)Nc2ccc(-c3cc(NC(=O)C4CC4)nc4[nH]ccc34)cc2)cn1` [Example 16, N-(4-(4-((1-methyl-1H-pyrazole)-4-sulfonamido)phenyl)-1H-pyrrolo[2,3-b]pyridin-6-yl)cyclopropanecarboxamide], the IC50 lay in the range of 20 to 200 nM.
In the case of `CCNC(=S)N1C2CCC1CC(c1cc(NC(=O)C3CC3)nc3[nH]ccc13)C2` (stereo not shown) [Example 657, N-(4-(8-(ethylcarbamothioyl)-8-azabicyclo[3.2.1]octan-3-yl)-1H-pyrrolo[2,3-b]pyridin-6-yl)cyclopropanecarboxamide], the half-maximal inhibitory concentration (IC50) is 20 to 200 nM.
With `O=C(Nc1cc(-c2ccc(NS(=O)(=O)CC3CC3)c(F)c2)c2cc[nH]c2n1)C1CC1` [Example 80, N-(4-(4-((cyclopropylmethyl)sulfonamido)-3-fluorophenyl)-1H-pyrrolo[2,3-b]pyridin-6-yl)cyclopropanecarboxamide] the figure was less than 20 nM; with `CCCC(=O)Nc1cc(-c2ccc(NS(=O)(=O)CC)c(F)c2)c2cc[nH]c2n1` [Example 712, N-(4-(4-(ethylsulfonamido)-3-fluorophenyl)-1H-pyrrolo[2,3-b]pyridin-6-yl)butyramide], more than 200 nM; with `O=C(Nc1cc(C2=CCN(C(=O)c3ccnc(F)c3F)CCC2)c2cc[nH]c2n1)C1CC1` [Example 424, N-(4-(1-(2,3-difluoroisonicotinoyl)-2,5,6,7-tetrahydro-1H-azepin-4-yl)-1H-pyrrolo[2,3-b]pyridin-6-yl)cyclopropanecarboxamide], less than 20 nM.
Take `O=C(Nc1nc(-c2ccc(NS(=O)(=O)CCCF)c(F)c2)c2cc[nH]c2n1)C1CC1` [Example 203, N-(4-(3-fluoro-4-((3-fluoropropyl)sulfonamido)phenyl)-7H-pyrrolo[2,3-d]pyrimidin-2-yl)cyclopropanecarboxamide]: the half-inhibitory concentration (IC50) is less than 20 nM.
`CN(CC(F)(F)F)S(=O)(=O)N1CC=C(c2cc(NC(=O)C3CC3)nc3[nH]ccc23)CC1` [Example 233, N-(4-(1-(N-methyl-N-(2,2,2-trifluoroethyl)sulfamoyl)-1,2,3,6-tetrahydropyridin-4-yl)-1H-pyrrolo[2,3-b]pyridin-6-yl)cyclopropanecarboxamide]: the half-inhibitory concentration (IC50) lay in the range of 20 to 200 nM.
With `O=C(Nc1cc(-c2cnn(C3CN(S(=O)(=O)C4CCCCC4)C3)c2)c2cc[nH]c2n1)C1CC1` [Example 606, N-(4-(1-(1-(cyclohexylsulfonyl)azetidin-3-yl)-1H-pyrazol-4-yl)-1H-pyrrolo[2,3-b]pyridin-6-yl)cyclopropanecarboxamide] the figure was more than 200 nM; with `C=CCS(=O)(=O)Oc1ccc(-c2cc(NC(=O)C3CC3)nc3[nH]ccc23)cc1` [Example 636, 4-(6-(cyclopropanecarboxamido)-1H-pyrrolo[2,3-b]pyridin-4-yl)phenyl prop-2-ene-1-sulfonate], less than 20 nM; with `O=C(Nc1cc(C2=CCN(C(=O)C3CC(F)(F)C3)CC2)c2cc[nH]c2n1)C1CC1` [Example 260, N-(4-(1-(3,3-difluorocyclobutane-1-carbonyl)-1,2,3,6-tetrahydropyridin-4-yl)-1H-pyrrolo[2,3-b]pyridin-6-yl)cyclopropanecarboxamide], 20 to 200 nM.
On to `CC1CN(C(=O)NCC(F)(F)F)CC=C1c1cc(NC(=O)C2CC2)nc2[nH]ccc12` (stereo not shown) [Example 453, 4-(6-(cyclopropanecarboxamido)-1H-pyrrolo[2,3-b]pyridin-4-yl)-3-methyl-N-(2,2,2-trifluoroethyl)-3,6-dihydropyridine-1 (2H)-carboxamide], for which the IC50 is less than 20 nM.
`O=C(Nc1cc(N2CCN(C(=O)NCC(F)(F)F)CC2)c2cc[nH]c2n1)C1CC1` [Example 690, 4-(6-(cyclopropanecarboxamido)-1H-pyrrolo[2,3-b]pyridin-4-yl)-N-(2,2,2-trifluoroethyl)piperazine-1-carboxamide]: the IC50 is more than 200 nM.
The value for `COC(=O)C1(C(=O)N2CC=C(c3cc(NC(=O)C4CC4)nc4[nH]ccc34)C(C)C2)CCC1` (stereo not shown) [Example 318, methyl 1-(4-(6-(cyclopropanecarboxamido)-1H-pyrrolo[2,3-b]pyridin-4-yl)-3-methyl-1,2,3,6-tetrahydropyridine-1-carbonyl)cyclobutane-1-carboxylate] was more than 200 nM; that for `O=C(Nc1cc(-c2ccc(NCC3CC3)cc2)c2cc[nH]c2n1)C1CC1` [Example 470, N-(4-(4-((cyclopropylmethyl)amino)phenyl)-1H-pyrrolo[2,3-b]pyridin-6-yl)cyclopropanecarboxamide] was 20 to 200 nM.
For `C=CCS(=O)(=O)NC1CC=C(c2cc(NC(=O)C3CC3)nc3[nH]ccc23)CC1` (stereo not shown) [Example 160, N-(4-(4-(allylsulfonamido)cyclohex-1-en-1-yl)-1H-pyrrolo[2,3-b]pyridin-6-yl)cyclopropanecarboxamide], the half-inhibitory concentration (IC50) was less than 20 nM.
For `CC(C)(C)OC(=O)N1CCN(C(=O)Cc2ccc(-c3cc(NC(=O)C4CC4)nc4[nH]ccc34)cc2)CC1` [Example 554, tert-butyl 4-(2-(4-(6-(cyclopropanecarboxamido)-1H-pyrrolo[2,3-b]pyridin-4-yl)phenyl)acetyl)piperazine-1-carboxylate], the 50% inhibitory concentration (IC50) lay in the range of 20 to 200 nM.
On to `N#CCC(=O)N1CC=C(c2cc(NC(=O)C3CC3)[n+]([O-])c3[nH]ccc23)CC1` [Example 275, 4-(1-(2-cyanoacetyl)-1,2,3,6-tetrahydropyridin-4-yl)-6-(cyclopropanecarboxamido)-1H-pyrrolo[2,3-b]pyridine 7-oxide], for which the half-inhibitory concentration (IC50) was less than 20 nM.
The value for `CCS(=O)(=O)Nc1ccc(-c2cc(NC(=O)C3CC3)nc3[nH]ccc23)c(F)c1` [Example 30, N-(4-(4-(ethylsulfonamido)-2-fluorophenyl)-1H-pyrrolo[2,3-b]pyridin-6-yl)cyclopropanecarboxamide] was less than 20 nM; that for `O=C(Nc1cc(N2CCN(CC(=O)N3CCS(=O)(=O)CC3)CC2)c2cc[nH]c2n1)C1CC1` [Example 702, N-(4-(4-(2-(1,1-dioxidothiomorpholino)-2-oxoethyl)piperazin-1-yl)-1H-pyrrolo[2,3-b]pyridin-6-yl)cyclopropanecarboxamide] was more than 200 nM.
